Results taken from patent publication US5821231A, “CS-1 peptidomimetics, compositions and methods of using same” (Cytel Corporation, priority 1995, dated 1998).
Square brackets hold non-standard residues; d marks the D form. Peptide text beside a SMILES is read from it. * marks the point of attachment. NHOctadecyl = CCCCCCCCCCCCCCCCCCN*; Cya = N[C@@H](CS(=O)(=O)O)C(=O)O; NMeF = CN[C@@H](Cc1ccccc1)C(=O)O; hPhe = N[C@@H](CCc1ccccc1)C(=O)O; Cha = N[C@@H](CC1CCCCC1)C(=O)O; Phg = N[C@H](C(=O)O)c1ccccc1; X8 = CCCCCCCCCCCCCCCCCCO*; Piperidide = C1CCN(*)CC1; X7 = O=C(CO*)OCc1ccccc1; PhAc = O=C(Cc1ccccc1)*; ODecyl = CCCCCCCCCCO*; X1 = CCCCCCCCCCCCCCO*; X4 = CCN(CC)C(=O)CO*; Bz = O=C(c1ccccc1)*; OBn = c1ccc(CO*)cc1; X5 = CCCCCCCCCCCCO*; Ahx = NCCCCCC(=O)O; X6 = O=C(O)CO*

Target: VLA-4 (Homo sapiens, UniProt P05556+P13612)
Sequence (P13612 34-1032): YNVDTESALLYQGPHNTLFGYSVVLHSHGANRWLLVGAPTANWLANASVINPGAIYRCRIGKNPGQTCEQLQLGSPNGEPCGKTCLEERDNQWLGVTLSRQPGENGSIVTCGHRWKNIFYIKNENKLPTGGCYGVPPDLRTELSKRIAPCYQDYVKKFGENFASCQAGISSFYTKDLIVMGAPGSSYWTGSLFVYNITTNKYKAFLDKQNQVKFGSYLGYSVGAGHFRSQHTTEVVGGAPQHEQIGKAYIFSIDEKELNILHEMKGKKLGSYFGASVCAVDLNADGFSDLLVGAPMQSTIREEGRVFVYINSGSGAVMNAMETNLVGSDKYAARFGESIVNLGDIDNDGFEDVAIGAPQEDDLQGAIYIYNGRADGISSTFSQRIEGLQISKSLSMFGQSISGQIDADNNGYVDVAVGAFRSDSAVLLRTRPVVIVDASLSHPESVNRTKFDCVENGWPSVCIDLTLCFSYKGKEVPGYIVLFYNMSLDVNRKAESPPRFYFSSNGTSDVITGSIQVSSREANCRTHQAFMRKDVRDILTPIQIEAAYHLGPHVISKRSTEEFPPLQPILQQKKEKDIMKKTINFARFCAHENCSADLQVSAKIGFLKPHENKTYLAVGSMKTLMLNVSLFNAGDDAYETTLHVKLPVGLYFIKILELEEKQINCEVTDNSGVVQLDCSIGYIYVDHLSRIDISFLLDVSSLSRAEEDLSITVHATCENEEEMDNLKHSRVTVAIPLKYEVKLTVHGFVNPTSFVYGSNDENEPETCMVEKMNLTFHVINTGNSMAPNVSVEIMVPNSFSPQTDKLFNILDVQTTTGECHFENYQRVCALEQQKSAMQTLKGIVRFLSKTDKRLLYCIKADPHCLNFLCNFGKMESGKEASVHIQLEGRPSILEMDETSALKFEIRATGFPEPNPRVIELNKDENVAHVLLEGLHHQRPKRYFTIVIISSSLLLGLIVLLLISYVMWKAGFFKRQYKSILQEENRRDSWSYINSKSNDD
Sequence (P05556 21-798): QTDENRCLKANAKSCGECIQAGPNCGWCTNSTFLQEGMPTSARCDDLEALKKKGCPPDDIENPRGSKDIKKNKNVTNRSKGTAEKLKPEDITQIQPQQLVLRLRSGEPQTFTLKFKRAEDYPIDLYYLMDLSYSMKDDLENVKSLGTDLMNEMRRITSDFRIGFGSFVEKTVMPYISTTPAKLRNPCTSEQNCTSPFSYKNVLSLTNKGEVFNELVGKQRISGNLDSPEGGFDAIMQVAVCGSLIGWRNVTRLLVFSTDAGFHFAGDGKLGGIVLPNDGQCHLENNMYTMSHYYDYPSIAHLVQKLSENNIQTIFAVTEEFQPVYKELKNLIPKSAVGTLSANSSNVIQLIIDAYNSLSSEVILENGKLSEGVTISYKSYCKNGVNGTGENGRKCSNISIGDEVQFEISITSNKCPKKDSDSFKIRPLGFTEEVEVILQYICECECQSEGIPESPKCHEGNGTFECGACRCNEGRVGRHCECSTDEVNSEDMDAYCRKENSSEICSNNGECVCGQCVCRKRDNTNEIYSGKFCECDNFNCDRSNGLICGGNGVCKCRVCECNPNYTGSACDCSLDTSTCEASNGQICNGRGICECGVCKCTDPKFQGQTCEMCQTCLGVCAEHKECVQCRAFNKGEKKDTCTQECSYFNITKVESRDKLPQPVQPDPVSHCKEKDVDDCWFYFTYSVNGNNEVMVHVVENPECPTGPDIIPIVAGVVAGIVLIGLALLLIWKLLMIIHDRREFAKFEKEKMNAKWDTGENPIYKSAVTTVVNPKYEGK
Experiment: In vitro binding assay: 51Cr-labeled Jurkat cells to solid phase-bound CS-1 compound (SEQ ID NO:1)
Format: cell-based
Set-up: inflammatory cells that contain the VLA-4 receptor [Jurkat cells; host or cells: Jurkat cells (human T lymphoblastic line)
Details: not given
Experimental: Binding inhibition is measured here as a concentration of compound that inhibits one-half the binding between a standard number of Jurkat cells and a standard amount of CS-1 compound bound to the surface of a microtiter plate well. Those concentrations are conveniently expressed as IC50 values, smaller numbers indicating a lower concentration required to inhibit 50 percent binding and therefore greater potency. Further specifics of this assay are provided hereinafter.
Jurkat cells (ATCC TIB 152), a human T lymphoblastic line, labeled with ^51 chromium were used to assay in vitro binding inhibition provided by various compounds discussed herein.
The plates were prepared as follows: The 25-mer CS-1 compound (SEQ ID NO:1) dissolved at 0.5-1 μg/ml in a buffer of 0.1M NaHCO3 at pH 9.5 that also contained 10 μg/ml of bovine serum albumin (BSA) or a conjugate of the CS-1 compound linked to ovalbumin (CS-1-OVA) dissolved at 1-2.5 μg/ml in the same buffer was used as the substrate. Each well of the microtiter plates was coated with 50 μl of substrate or buffer alone for controls. The wells were permitted to dry out completely and were then rinsed twice with PBS at pH 7.4. Non-specific binding sites of each well were then blocked using 200 μl per well of RPMI/1 percent BSA for two hours at room temperature.
Jurkat cells (3-5×10^6 cells) were placed into a 15 ml Falcon™ round-bottom tube with a cap. The tube was centrifuged, and the extra medium was then removed.
Two hundred microliters of a ^51 Cr labeling solution were added to the centrifuged cells and maintained in contact with the cells for 90-120 minutes in a warm room. […] Longer contact times provide a greater amount of labeling but lower cell viability.
The labeled cells are washed with (i) complete medium, (ii) 1 mM EDTA/PBS and then (iii) RPM1/1 percent BSA free of serum components. The cells are centrifuged after each washing. The cells are finally resuspended in serum-free RPMI/1 percent BSA at a concentration of 1×10^6 viable cells/ml, which provides a concentration that is diluted by one-half in the assay.
Inhibitor compounds are prepared as stock solutions at 20 mg/ml in DMSO in 1.5 ml cryogenic screwcap vials, and were stored at -70° C. Using Flow™ round-bottom or V-bottom microtiter plates, the inhibitor compounds were prepared at twice the assay concentration in RPMI/1 percent BSA at 60 μl/well.
Four initial dilutions were typically used.
The ^51 Cr-labeled cells ([…] at 60 μl/well) were then admixed with the diluted compound solutions. The admixtures were maintained at room temperature (about 22° C.) for 30 minutes.
One hundred microliters of each inhibitor compound/cell admixture were transferred to the substrate-coated wells. This was done in triplicate for each dilution. The resulting plates were incubated for 30 minutes at 37° C. and then washed gently three times with RPMI/1 percent BSA at 200 μl/well. Binding was observed microscopically, particularly after the second wash.
The bound cells were then lysed by the addition of a 0.5 percent solution of sodium dodecylsulfate in water at 100 μl/well. The resulting solutions were then processed for counting and calculation of IC50 values following usual procedures.
The data of Table 1 are normalized to the binding of SEQ ID NO: 3. […] Multiple assays for the same compound were averaged.

Row | Relative Potency | Compound
1 | 0 | CC(C)[C@@H]1CC[C@@H](C)C[C@H]1OCC(=O)N[C@@H](CC(=O)O)C(=O)N[C@@H](Cc1ccccc1)C(=O)N1CCC[C@@H]1C(N)=O [1056.06]

Same assay, conditions: before the prodrug compound is enzymatically converted to an active form; relative to SEQ ID NO:3 = 1

Row | Compound | Relative Potency (prodrug compound)
2 | CC(C)C[C@H](NC(=O)Cc1ccccc1)C(=O)N[C@@H](CC(=O)OCC(=O)OCc1ccccc1)C(=O)N[C@@H](Cc1ccccc1)C(=O)N1CCC[C@@H]1C(N)=O [1067.01] (PhAc-LD(X7)F[dP]-NH2) | .97
3 | CC(C)C[C@H](NC(=O)Cc1ccccc1)C(=O)N[C@@H](CC(=O)OCC(=O)O)C(=O)N[C@@H](Cc1ccccc1)C(=O)N1CCC[C@@H]1C(N)=O [1067.02] (PhAc-LD(X6)F[dP]-NH2) | .81
4 | CCCCCCCCCCCCCCCCCCNC(=O)CCCCCNC(=O)[C@@H]1CCCN1C(=O)[C@H](Cc1ccccc1)NC(=O)[C@H](CC(=O)O)NC(=O)[C@H](CC(C)C)NC(=O)Cc1ccccc1 [1068.01, phenylacetyl-Leu-Asp-Phe-Pro-NH(CH2)5 C (O)NHC18 H37] (PhAc-LDFP[Ahx]-NHOctadecyl) | .91
5 | CCCCCCCCCCCCCCCCCC(=O)OC1CCN(C(=O)[C@H](Cc2ccccc2)NC(=O)[C@H](CC(=O)O)NC(=O)[C@H](CC(C)C)NC(=O)Cc2ccccc2)CC1 [1068.05] | 0.63
6 | CCCCCCCCCC(=O)OC1CCN(C(=O)[C@H](Cc2ccccc2)NC(=O)[C@H](CC(=O)O)NC(=O)[C@H](CC(C)C)NC(=O)Cc2ccccc2)CC1 [1068.06] | .63
7 | CC(C)C[C@H](NC(=O)Cc1ccccc1)C(=O)N[C@@H](CC(=O)OCc1ccccc1)C(=O)N[C@@H](Cc1ccccc1)C(=O)N1CCC[C@@H]1C(N)=O [1068.07] (PhAc-LD(OBn)F[dP]-NH2) | 0
8 | CCCCCCCCCCOC(=O)C[C@H](NC(=O)[C@H](CC(C)C)NC(=O)Cc1ccccc1)C(=O)N[C@@H](Cc1ccccc1)C(=O)N1CCC[C@@H]1C(N)=O [1068.09] (PhAc-LD(ODecyl)F[dP]-NH2) | 0
9 | CCCCCCCCCCCCOC(=O)C[C@H](NC(=O)[C@H](CC(C)C)NC(=O)Cc1ccccc1)C(=O)N[C@@H](Cc1ccccc1)C(=O)N1CCC[C@@H]1C(N)=O [1068.10] (PhAc-LD(X5)F[dP]-NH2) | 0
10 | CCCCCCCCCCCCCCOC(=O)C[C@H](NC(=O)[C@H](CC(C)C)NC(=O)Cc1ccccc1)C(=O)N[C@@H](Cc1ccccc1)C(=O)N1CCC[C@@H]1C(N)=O [1068.11] (PhAc-LD(X1)F[dP]-NH2) | 0
11 | CCCCCCCCCCCCCCCCCCOC(=O)C[C@H](NC(=O)[C@H](CC(C)C)NC(=O)Cc1ccccc1)C(=O)N[C@@H](Cc1ccccc1)C(=O)N1CCC[C@@H]1C(N)=O [1068.12] (PhAc-LD(X8)F[dP]-NH2) | 0
12 | CCN(CC)C(=O)COC(=O)C[C@H](NC(=O)[C@H](CC(C)C)NC(=O)Cc1ccccc1)C(=O)N[C@@H](Cc1ccccc1)C(=O)N1CCC[C@@H]1C(N)=O [1068.13] (PhAc-LD(X4)F[dP]-NH2) | 0
13 | CCOC(=O)C[C@H](NC(=O)[C@H](CC(C)C)NC(=O)Cc1ccccc1)C(=O)N[C@@H](Cc1ccccc1)C(=O)N1CCC[C@@H]1C(N)=O [1190.01] (PhAc-LD(OEt)F[dP]-NH2) | 0

Same assay, conditions: binding inhibition potency (IC50) relative to standard compound of SEQ ID NO:3 = 1; about one-tenth or less assigned zero

Row | Compound | Relative Potency
14 | NC(=O)[C@H]1CCCN1C(=O)[C@H](Cc1ccccc1)NC(=O)[C@H](CC(=O)O)NC(=O)[C@H](CC1CCCCC1)NC(=O)c1ccccc1 [896.31] (Bz-[Cha]DF[dP]-NH2) | 11
15 | CC(C)C[C@H](NC(=O)c1ccccc1)C(=O)N[C@@H](CC(=O)O)C(=O)N[C@H](C(=O)N1CCC[C@H]1C(N)=O)C(C)C [896.35] | 16
16 | CC(C)C[C@H](NC(=O)Cc1ccccc1)C(=O)N[C@@H](CS)C(=O)N[C@@H](Cc1ccccc1)C(=O)N1CCC[C@@H]1C(N)=O [896.59] (PhAc-LCF[dP]-NH2) | 0
17 | CC(C)C[C@H](NC(=O)Cc1ccccc1)C(=O)N[C@@H](CC(=O)O)C(=O)N[C@H](C(=O)N1CCC[C@@H]1C(N)=O)c1ccccc1 [896.69] (PhAc-LD[Phg][dP]-NH2) | 61
18 | CC(C)C[C@H](NC(=O)c1ccccc1)C(=O)N[C@@H](CC(=O)O)C(=O)N[C@H](C(=O)N1CCC[C@@H]1C(N)=O)C(C)C [926.02] | 9.6
19 | O=C(O)C[C@H](NC1CCN(C(=O)Cc2ccccc2)CC1)C(=O)N[C@@H](Cc1ccccc1)C(=O)N1CCCC1 [992.01] | 0
20 | CC(C)C[C@H](NC(=O)Cc1ccccc1)C(=O)N[C@@H](CC(=O)O)C(=O)N[C@@H](Cc1ccccc1)C(N)=O [997.12] (PhAc-Leu-Asp-Phe-NH2) | .45
21 | CC(C)C[C@H](NC(=O)Cc1ccccc1)C(=O)N[C@@H](CC(=O)O)C(=O)NC1Cc2ccccc2N(CCN2CCOCC2)C1=O (some centres unmarked) [997.18] | 20
22 | CC(C)C[C@H](NC(=O)Cc1ccccc1)C(=O)NC(CC(=O)O)(CC(=O)O)C(=O)N[C@@H](Cc1ccccc1)C(=O)N1CCCCC1 [1026.01] | 0
23 | CC(C)C[C@H](NC(=O)Cc1ccccc1)C(=O)NC(C(=O)O)C(=O)N[C@@H](Cc1ccccc1)C(=O)N1CCCCC1 (some centres unmarked) [1026.02] | 0
24 | CC(C)C[C@H](NC(=O)Cc1ccccc1)C(=O)N[C@@H](CS(=O)(=O)O)C(=O)N[C@@H](Cc1ccccc1)C(=O)N1CCCCC1 [1026.06] (PhAc-Leu-[Cya]-Phe-Piperidide) | 0
25 | CC(C)C[C@H](NC(=O)Cc1ccccc1)C(=O)N[C@@H](CP(=O)(O)O)C(=O)N[C@@H](Cc1ccccc1)C(=O)N1CCCCC1 [1026.07] | 0
26 | CC(C)C[C@H](NC(=O)Cc1ccccc1)C(=O)N[C@@H](CS(N)(=O)=O)C(=O)N[C@@H](Cc1ccccc1)C(=O)N1CCCCC1 [1026.08] | 0
27 | CC(C)CN(CC(=O)Nc1ccccc1)C(=O)CN(CC(=O)O)C(=O)CN(Cc1ccccc1)C(=O)C1CCCC1 [1032.02] | .63
28 | CC(C)C[C@@H](CN[C@@H](CC(=O)O)C(=O)N[C@@H](Cc1ccccc1)C(=O)N1CCCCC1)NC(=O)Cc1ccccc1 [1041.01] | 0
29 | CC(C)C[C@H](NC(=O)Cc1ccccc1)C(=O)N[C@@H](CC(=O)O)C(=O)N1C(=O)N(Cc2ccccc2)C(=O)[C@H]1Cc1ccccc1 [1047.07] | .38
30 | CC(C)C[C@H](NC(=O)Cc1ccccc1)C(=O)N[C@@H](CC(=O)O)C(=O)N1C(=O)N(Cc2ccccc2)C(=O)[C@@H]1Cc1ccccc1 [1047.08] | .38
31 | CC(C)C[C@H](NC(=O)Cc1ccccc1)C(=O)N[C@@H](CC(=O)O)C(=O)N[C@@H](Cc1ccccc1)C(=O)NCCCO [1051.05] | 25
32 | NC(=O)[C@H]1CCCN1C(=O)[C@H](Cc1ccccc1)NC(=O)[C@H](CC(=O)O)NC(=O)CCCCC1CCSS1 (some centres unmarked) [1056.09] | 1.1
33 | O=C(O)CC(C(=O)N[C@@H](Cc1ccccc1)C(=O)N1CCCCC1)N1CC[C@H](NC(=O)Cc2ccccc2)C1=O (some centres unmarked) [1057.01] | .88
34 | CC(C)C[C@H](NC(=O)Cc1ccccc1)C(=O)N[C@@H](CC(=O)O)C(=O)NC1CCCCN(CC(N)=O)C1=O (some centres unmarked) [1057.06] | 97
35 | CC(C)C[C@H](NC(=O)Cc1ccccc1)C(=O)N[C@@H](CC(=O)O)C(=O)N[C@@H](CCc1ccccc1)C(=O)N1CCC[C@@H]1C(N)=O [1062.03] (PhAc-LD[hPhe][dP]-NH2) | 93.93
36 | CC(C)C[C@H](NC(=O)Cc1ccccc1)C(=O)N[C@@H](CC(=O)O)C(=O)N[C@@H](Cc1ccccc1)C(=O)N1CCSCC1 [1111.02] | 450
37 | CC(C)C[C@H](NC(=O)Cc1ccccc1)C(=O)N[C@@H](CC(=O)O)C(=O)N[C@@H](Cc1ccccc1)C(=O)N1CCN(CCOCCO)CC1 [1111.07] | 510
38 | CC(C)C[C@H](NC(=O)Cc1ccccc1)C(=O)N[C@@H](CC(=O)O)C(=O)N(C)[C@@H](Cc1ccccc1)C(=O)N1CCC[C@@H]1C(N)=O [1190.05] (PhAc-LD[NMeF][dP]-NH2) | 0
